# Test results as given in patent US20200247808A1, “Heterocyclic Tec-Family Kinase Inhibitors” (GB005, Inc., priority 2015, published 2020).
# “Also recorded” adds a separate entry of the source.
# Experiments:
# [1] = test system: collagen-induced arthritis; assay: Mouse CIA (collagen-induced arthritis) model; type: in vivo, mouse (B10RIII); conditions: mice, oral gavage 10 and 30 mg/kg, BID, to RA day 12
# Method: Mouse CIA model was performed using the methods described by Trentham D E, Townes A S, Kang A H. Autoimmunity to Type II Collagen: An Experimental Model of Arthritis. J Exp Med 1977; 857-868, and Bendele A M. Animal Models of Rheumatoid Arthritis. J Musculoskel Interact 2001; 377-385.
# […]. On experimental day 0 mice were anaesthetized with isoflurane and the dorsal surface was shaved. Collagen, emulsified in Freund's complete adjuvant (CFA) supplemented with additional mycobacterium tuberculosis (TB) H37Ra, was injected intradermally at the base of the tail (0.15 mL / animal; 2 mg/mL collagen and 2.5 mg/mL TB in CFA). This CFA treatment was repeated on day 15.
# From day 15 to the end of the study animals were scored daily for signs of arthritis. On the first day of disease (RA Day 1) animals were recruited to the study and grouped using a balanced design based on arthritis score. Once recruited, animals were weighed and dosed twice daily by gavage (PO, BID). Recruited animals were then scored twice a week on RA days 1, 5, 8 and 12.
# At the end of the study (RA day 12) animals were weighed and scored.
# [2] = test system: immune complex mediated vasculitis; assay: Mouse Arthus (immune complex mediated acute vasculitis); type: in vivo, mouse (Balb/c); conditions: mice; for Suppression of immune complex mediated vasculitis: oral gavage 10 mg/kg, 1 h pre-treatment, Evan's blue extravasation at 4 h
# Method: Formation and reaction to immune complexes is characteristic of antibody mediated autoimmune and inflammatory disease. BTK is important in signaling pathways downstream of Fc receptor stimulation which can be modeled by immune complex mediated acute vasculitis. Mouse studies were conducted as reported in Braselmann S, et al. J Pharmacol Exp Ther, 2006, 319:998-1008.
# In summary, female Balb/c mice (6-7 weeks on arrival) were habituated to the animal facility for at least 4 days. On the day of the experiment, animals were pre-treated (t=minus 1 h) with compound or vehicle alone by gavage (PO). At t=0, animals were injected intravenously (IV; 0.1 mL/mouse) with saline containing chicken ovalbumin and Evan's blue (10 mg/mL of each). Ten minutes later (t=10 min), animals were anesthesized with isoflurane, the dorsal surface was shaved and rabbit anti-chicken ovalbumin antibody was then injected intradermally at one site on the right side of the animal (25 μg in 30 μL). The same amount of isotype control antibody was then injected on the left side.
# The animals were then returned to their home cage and skin punches (8 mm) were collected from each injection site four hours later. The samples were placed in 1 mL formamide overnight at 80° C. (1 skin biopsy per 1 mL formamide in a glass tube). The amount of Evan's blue in the formamide solution was then assessed by spectrophotometry (630 nm) as a measure of serum extravasation into the dermis.
SMILES,Effect on arthritis in mouse CIA model [1],"Effect on immune complex-mediated vasculitis (FIG. 3, in words) [2]",Suppression of immune complex mediated vasculitis [2]
CC#CC(=O)N[C@H]1C[C@@H](n2nc(-c3ccc(Oc4ccccc4)cc3)c3c(N)ncnc32)C1 [Compound 1],prevented the progression of arthritis; also recorded: effective in the mouse collagen-induced arthritis model,inhibit immune complex-mediated vasculitis,87%
C=CC(=O)N[C@H]1C[C@@H](n2nc(-c3ccc(Oc4ccccc4)cc3)c3c(N)ncnc32)C1 [Compound 2],prevented the progression of arthritis; also recorded: effective in the mouse collagen-induced arthritis model,inhibit immune complex-mediated vasculitis,94%
